Data: PubChem BioAssay AID1259407 (Chemical Carcinogenesis Research Information System (CCRIS), 2018)
Activity calls are given as the source filed them. How the calls were made is not given here.

System: CCRIS mutagenicity, Ames/micronucleus/aberration tests
Test: CCRIS mutagenicity studies

ClCc1ccccc1
mutagenic call (End Point: IN VITRO CHROMOSOMAL ABERRATIONS, Test System: CHL CELLS, Metabolic Activation: RAT, LIVER, S-9, SODIUM PHENOBARBITAL AND 5,6-BENZOFLAVONE): active; positive (structural changes)
mutagenic call (End Point: IN VITRO MICRONUCLEUS, Test System: CHL/IU CELLS, Metabolic Activation: NONE): active; positive
mutagenic call (Test System: AMES SALMONELLA TYPHIMURIUM, Strain/Indicator: TA97, Metabolic Activation: HAMSTER, LIVER, S-9, AROCLOR 1254 (10%), Method: PREINCUBATION): inactive; negative
mutagenic call (Test System: AMES SALMONELLA TYPHIMURIUM, Strain/Indicator: TA97, Metabolic Activation: HAMSTER, LIVER, S-9, AROCLOR 1254 (30%), Method: PREINCUBATION): inactive; negative
mutagenic call (Test System: AMES SALMONELLA TYPHIMURIUM, Strain/Indicator: TA97, Metabolic Activation: NONE, Method: PREINCUBATION): inactive; negative
mutagenic call (Test System: AMES SALMONELLA TYPHIMURIUM, Strain/Indicator: TA97, Metabolic Activation: RAT, LIVER, S-9, AROCLOR 1254 (10%), Method: PREINCUBATION): inactive; negative
mutagenic call (Test System: AMES SALMONELLA TYPHIMURIUM, Strain/Indicator: TA97, Metabolic Activation: RAT, LIVER, S-9, AROCLOR 1254 (30%), Method: PREINCUBATION): inactive; negative
mutagenic call (Test System: AMES SALMONELLA TYPHIMURIUM, Strain/Indicator: TA98, Metabolic Activation: HAMSTER, LIVER, S-9, AROCLOR 1254 (10%), Method: PREINCUBATION): inactive; negative
mutagenic call (Test System: AMES SALMONELLA TYPHIMURIUM, Strain/Indicator: TA98, Metabolic Activation: HAMSTER, LIVER, S-9, AROCLOR 1254 (30%), Method: PREINCUBATION): inactive; negative
mutagenic call (Test System: AMES SALMONELLA TYPHIMURIUM, Strain/Indicator: TA98, Metabolic Activation: NONE, Method: FLUCTUATION (MICROTITER)): inactive; negative
mutagenic call (Test System: AMES SALMONELLA TYPHIMURIUM, Strain/Indicator: TA98, Metabolic Activation: NONE, Method: PREINCUBATION): inactive; negative
mutagenic call (Test System: AMES SALMONELLA TYPHIMURIUM, Strain/Indicator: TA98, Metabolic Activation: RAT LIVER S-9, AROCLOR 1254, Method: FLUCTUATION (MICROTITER)): inactive; negative
mutagenic call (Test System: AMES SALMONELLA TYPHIMURIUM, Strain/Indicator: TA98, Metabolic Activation: RAT LIVER S-9, PHENOBARBITAL AND BETA-NAPHTHOFLAVONE, Method: PREINCUBATION): inactive; negative
mutagenic call (Test System: AMES SALMONELLA TYPHIMURIUM, Strain/Indicator: TA98, Metabolic Activation: RAT, LIVER, S-9, AROCLOR 1254 (10%), Method: PREINCUBATION): inactive; negative
mutagenic call (Test System: AMES SALMONELLA TYPHIMURIUM, Strain/Indicator: TA98, Metabolic Activation: RAT, LIVER, S-9, AROCLOR 1254 (30%), Method: PREINCUBATION): inactive; negative
mutagenic call (Test System: AMES SALMONELLA TYPHIMURIUM, Strain/Indicator: TA100, Metabolic Activation: HAMSTER, LIVER, S-9, AROCLOR 1254 (10 OR 30%), Method: PREINCUBATION): inactive; negative
mutagenic call (Test System: AMES SALMONELLA TYPHIMURIUM, Strain/Indicator: TA100, Metabolic Activation: NONE, Method: STANDARD PLATE): inactive; negative
mutagenic call (Test System: AMES SALMONELLA TYPHIMURIUM, Strain/Indicator: TA100, Metabolic Activation: RAT, LIVER, S-9, AROCLOR 1254 (10%), Method: PREINCUBATION): inactive; negative
mutagenic call (Test System: AMES SALMONELLA TYPHIMURIUM, Strain/Indicator: TA100, Metabolic Activation: RAT, LIVER, S-9, AROCLOR 1254 (30%), Method: PREINCUBATION): inactive; negative
mutagenic call (Test System: AMES SALMONELLA TYPHIMURIUM, Strain/Indicator: TA100, Method: STANDARD PLATE): active; positive
mutagenic call (Test System: AMES SALMONELLA TYPHIMURIUM, Strain/Indicator: TA1535, Metabolic Activation: HAMSTER, LIVER, S-9, AROCLOR 1254 (10%), Method: PREINCUBATION): inactive; negative
mutagenic call (Test System: AMES SALMONELLA TYPHIMURIUM, Strain/Indicator: TA1535, Metabolic Activation: HAMSTER, LIVER, S-9, AROCLOR 1254 (30%), Method: PREINCUBATION): inactive; negative
mutagenic call (Test System: AMES SALMONELLA TYPHIMURIUM, Strain/Indicator: TA1535, Metabolic Activation: NONE, Method: PREINCUBATION): inactive; negative
mutagenic call (Test System: AMES SALMONELLA TYPHIMURIUM, Strain/Indicator: TA1535, Metabolic Activation: RAT LIVER S-9, PHENOBARBITAL AND BETA-NAPHTHOFLAVONE, Method: PREINCUBATION): inactive; negative
mutagenic call (Test System: AMES SALMONELLA TYPHIMURIUM, Strain/Indicator: TA1535, Metabolic Activation: RAT, LIVER, S-9, AROCLOR 1254 (10%), Method: PREINCUBATION): inactive; negative
mutagenic call (Test System: AMES SALMONELLA TYPHIMURIUM, Strain/Indicator: TA1535, Metabolic Activation: RAT, LIVER, S-9, AROCLOR 1254 (30%), Method: PREINCUBATION): inactive; negative
mutagenic call (Test System: AMES SALMONELLA TYPHIMURIUM, Strain/Indicator: TA1537, Metabolic Activation: HAMSTER, LIVER, S-9, AROCLOR 1254 (10%), Method: PREINCUBATION): inactive; negative
mutagenic call (Test System: AMES SALMONELLA TYPHIMURIUM, Strain/Indicator: TA1537, Metabolic Activation: NONE, Method: FLUCTUATION (MICROTITER)): inactive; negative
mutagenic call (Test System: AMES SALMONELLA TYPHIMURIUM, Strain/Indicator: TA1537, Metabolic Activation: NONE, Method: PREINCUBATION): inactive; negative
mutagenic call (Test System: AMES SALMONELLA TYPHIMURIUM, Strain/Indicator: TA1537, Metabolic Activation: RAT LIVER S-9, AROCLOR 1254, Method: FLUCTUATION (MICROTITER)): inactive; negative
mutagenic call (Test System: AMES SALMONELLA TYPHIMURIUM, Strain/Indicator: TA1537, Metabolic Activation: RAT LIVER S-9, PHENOBARBITAL AND BETA-NAPHTHOFLAVONE, Method: PREINCUBATION): inactive; negative
mutagenic call (Test System: AMES SALMONELLA TYPHIMURIUM, Strain/Indicator: TA1537, Metabolic Activation: RAT, LIVER, S-9, AROCLOR 1254 (10%), Method: PREINCUBATION): inactive; negative
mutagenic call (Test System: AMES SALMONELLA TYPHIMURIUM, Strain/Indicator: TA7001, Metabolic Activation: NONE, Method: FLUCTUATION (MICROTITER)): inactive; negative
mutagenic call (Test System: AMES SALMONELLA TYPHIMURIUM, Strain/Indicator: TA7001, Metabolic Activation: RAT LIVER S-9, AROCLOR 1254, Method: FLUCTUATION (MICROTITER)): inactive; negative
mutagenic call (Test System: AMES SALMONELLA TYPHIMURIUM, Strain/Indicator: TA7002, Metabolic Activation: NONE, Method: FLUCTUATION (MICROTITER)): inactive; negative
mutagenic call (Test System: AMES SALMONELLA TYPHIMURIUM, Strain/Indicator: TA7002, Metabolic Activation: RAT LIVER S-9, AROCLOR 1254, Method: FLUCTUATION (MICROTITER)): inactive; negative
mutagenic call (Test System: AMES SALMONELLA TYPHIMURIUM, Strain/Indicator: TA7003, Metabolic Activation: NONE, Method: FLUCTUATION (MICROTITER)): inactive; negative
mutagenic call (Test System: AMES SALMONELLA TYPHIMURIUM, Strain/Indicator: TA7003, Metabolic Activation: RAT LIVER S-9, AROCLOR 1254, Method: FLUCTUATION (MICROTITER)): inactive; negative
mutagenic call (Test System: AMES SALMONELLA TYPHIMURIUM, Strain/Indicator: TA7004, Metabolic Activation: NONE, Method: FLUCTUATION (MICROTITER)): active; positive
mutagenic call (Test System: AMES SALMONELLA TYPHIMURIUM, Strain/Indicator: TA7004, Metabolic Activation: RAT LIVER S-9, AROCLOR 1254, Method: FLUCTUATION (MICROTITER)): inactive; negative
mutagenic call (Test System: AMES SALMONELLA TYPHIMURIUM, Strain/Indicator: TA7005, Metabolic Activation: NONE, Method: FLUCTUATION (MICROTITER)): active; positive
mutagenic call (Test System: AMES SALMONELLA TYPHIMURIUM, Strain/Indicator: TA7005, Metabolic Activation: RAT LIVER S-9, AROCLOR 1254, Method: FLUCTUATION (MICROTITER)): inactive; negative
mutagenic call (Test System: AMES SALMONELLA TYPHIMURIUM, Strain/Indicator: TA7006, Metabolic Activation: NONE, Method: FLUCTUATION (MICROTITER)): inactive; negative
mutagenic call (Test System: AMES SALMONELLA TYPHIMURIUM, Strain/Indicator: TA7006, Metabolic Activation: RAT LIVER S-9, AROCLOR 1254, Method: FLUCTUATION (MICROTITER)): inactive; negative
mutagenic call (Test System: Ames Salmonella typhimurium, Strain/Indicator: TA98, Metabolic Activation: None, Method: Direct plate-incorporation): inactive; negative (no data given in original article)
mutagenic call (Test System: Ames Salmonella typhimurium, Strain/Indicator: TA98, Metabolic Activation: None, Method: Direct plate-incorporation using closed container): inactive; negative, moderate toxicity at highest dose.
mutagenic call (Test System: Ames Salmonella typhimurium, Strain/Indicator: TA98, Metabolic Activation: None, Method: Vaporization-diffusion): inactive; negative
mutagenic call (Test System: Ames Salmonella typhimurium, Strain/Indicator: TA98, Metabolic Activation: Rat, liver, S-9, Aroclor 1254, Method: Direct plate-incorporation): inactive; negative (no data given in original article)
mutagenic call (Test System: Ames Salmonella typhimurium, Strain/Indicator: TA98, Metabolic Activation: Rat, liver, S-9, Aroclor 1254, Method: Direct plate-incorporation using closed container): inactive; negative, moderate toxicity at highest dose.
mutagenic call (Test System: Ames Salmonella typhimurium, Strain/Indicator: TA98, Metabolic Activation: Rat, liver, S-9, Aroclor 1254, Method: Preincubation): inactive; negative, strain also tested without s-9, but moderate to high toxicity was obse
mutagenic call (Test System: Ames Salmonella typhimurium, Strain/Indicator: TA98, Metabolic Activation: Rat, liver, S-9, Aroclor 1254, Method: Vaporization-diffusion): inactive; negative
mutagenic call (Test System: Ames Salmonella typhimurium, Strain/Indicator: TA100, Metabolic Activation: None, Method: Direct plate-incorporation): inactive; negative
mutagenic call (Test System: Ames Salmonella typhimurium, Strain/Indicator: TA100, Metabolic Activation: None, Method: Vaporization-diffusion): active; positive at all doses, effect of duration of exposure evident, with only 3-hr ex
mutagenic call (Test System: Ames Salmonella typhimurium, Strain/Indicator: TA100, Metabolic Activation: Rat, liver, S-9, Aroclor 1254, Method: Direct plate-incorporation): active; positive (weak but dose related response; in previous test, higher dose of 2,500
mutagenic call (Test System: Ames Salmonella typhimurium, Strain/Indicator: TA100, Metabolic Activation: Rat, liver, S-9, Aroclor 1254, Method: Preincubation): active; positive, weak, dose-related increase in number of revertants noted. strain also
mutagenic call (Test System: Ames Salmonella typhimurium, Strain/Indicator: TA100, Metabolic Activation: Rat, liver, S-9, Aroclor 1254, Method: Vaporization-diffusion): active; positive at all doses, effect of duration of exposure evident, with only 3-hr ex
mutagenic call (Test System: Ames Salmonella typhimurium, Strain/Sex: TA100, Metabolic Activation: None, Method: Direct plate-incorporation using closed container): active; positive, moderate toxicity at highest dose.
mutagenic call (Test System: Ames Salmonella typhimurium, Strain/Sex: TA100, Metabolic Activation: Rat, liver, S-9, Aroclor 1254, Method: Direct plate-incorporation using closed container): active; positive, moderate toxicity at highest dose.
mutagenic call (Test System: UDS HUMAN FIBROBLASTS, Strain/Indicator: THY INCORP (NON-S-PHASE), Metabolic Activation: NONE, Method: LIQUID SCINTILLATION COUNTING): active; positive
